# From article PMC9356275, “A quantitative high-throughput screen identifies compounds that lower expression of the SCA2-and ALS-associated gene ATXN2” (The Journal of Biological Chemistry, 2022)
# Where a name gives a salt, the structure may show the parent alone. Read-outs that look alike come from different tables or passages of the source.
# How the values were obtained:
# ATXN2-luc [1] = test: MSSR pilot screen: ATXN2-luc luciferase assay (Bright-Glo) in H2 cells, single 10 μM dose; type: cell-based, human; settings: H2 cells, single dose (title: 10 μM compound), overnight
# ATXN2-luc [2] = test: NCATS qHTS (LOPAC pilot, primary and confirmation): ATXN2-luc in S2 cells, 1536-well, Steady-Glo; type: cell-based, human
# Experimental: We next performed a pilot screen assay to optimize the 1536-well qHTS using S2 cells. […] Cytotoxicity was determined using a multiplexed viability assay (CellTiter-Fluor, a fluorescence-based viability assay using Gly-Phe-7-amino-4-trifluoromethylcoumarin substrate).
# CellTiter-Fluor was used to determine compound effect on cell viability, and Steady-Glo was used to measure luciferase in a multiplexed assay.
# The primary assay was conducted at the NCATS NIH Chemical Genomics Center laboratory. About 4 μl of S2 cell suspension in phenol red–free DMEM was dispensed into wells of 1536-well assay plates. […] Next, SteadyGlo luciferase substrate detection reagent (3 μl) was added to each well and incubated for an additional 5 min at room temperature. Luminescence was then measured on the ViewLux imager equipped with clear filters using a 2 s exposure. All screening operations were performed on a fully integrated robotic system (Kalypsys) containing one RX-130 and two RX-90 anthropomorphic robotic arms (Stäubli). Vehicle-only plates, with DMSO being pin-transferred to columns 5 to 48, were inserted uniformly at the beginning and the end of each library in order to monitor and record any shifts in assay performance.
# [3] = Homo sapiens, LOPAC library screening optimization, logarithm of AC50 (negative values), read-out: Log AC50 (converted)
# [4] = Homo sapiens, LOPAC library screening optimization, read-out: AC50
# [5] = LOPAC library screening optimization, curve-fit parameter
Structure (SMILES),"SD from mean (ATXN2-luc, Z-score) (ATXN2-luc [1]) [SD]",further results
COc1ccc(C[C@H](N)C(=O)N[C@H]2[C@@H](O)[C@H](n3cnc4c(N(C)C)ncnc43)O[C@@H]2CO)cc1 [PUROMYCIN HYDROCHLORIDE],-3.716,
COc1cc(C[C@H](C)N)c(OC)cc1Br.Cl,,AC50 (ATXN2-luc [2]; [3]): 28.2 µM; AC50 (ATXN2-luc [2]; [4]): 28.2 µM; Efficacy (ATXN2-luc [2]; [5]): -52.627; Inf Activity (ATXN2-luc [2]; [5]): -55.207
CC(C)=CCC[C@]1(C)C=Cc2c(O)c3c(c(CC=C(C)C)c2O1)O[C@]12C(=C[C@@H]4C[C@H]1C(C)(C)O[C@@]2(C/C=C(/C)C(=O)O)C4=O)C3=O [GAMBOGIC ACID],-4.841,
Nc1c2ccccc2nc2ccccc12 [AMINACRINE],-4.103,
CC[C@@]1(O)C[C@H](O[C@H]2C[C@H](N(C)C)[C@H](O)[C@H](C)O2)c2c(cc3c(c2O)C(=O)c2c(O)cccc2C3=O)[C@H]1C(=O)OC [AKLAVINE HYDROCHLORIDE],-3.741,
CC(C)/N=c1\cc2n(-c3ccc(Cl)cc3)c3ccccc3nc-2cc1Nc1ccc(Cl)cc1 [CLOFAZIMINE],-2.792,
COc1cc(/C=C/C(=O)N2CCC=CC2=O)cc(OC)c1OC [Piperlongumine],-2.973,
CC(C)NC[C@H](O)COc1cccc2ccccc12 [(S)-Propranolol hydrochloride],,"AC50 (ATXN2-luc [2]; [3]): 17.8 µM; AC50 (ATXN2-luc [2]; [4]): 17.8 µM; Curve Class (ATXN2-luc [2]; LOPAC library (1,280 compounds) screening optimization, signed sub-classes (-1.1, -2.2, -3 ...)): -2.2; Log AC50 (ATXN2-luc [2]; LOPAC library screening optimization, logarithm of AC50 (negative values)): -4.5; AC50 (ATXN2-luc [2]; LOPAC library screening optimization, read-out: AC50): 31.6 µM"
O=C1c2c(O)ccc(O)c2C(=O)c2c(NCCNCCO)ccc(NCCNCCO)c21 [Mitoxantrone dihydrochloride],-3.666,
Cl.Cl.O=C1c2c(O)ccc(O)c2C(=O)c2c(NCCNCCO)ccc(NCCNCCO)c21 [MITOXANTHRONE HYDROCHLORIDE],-4.333,
O=C(Nc1ccc([N+](=O)[O-])cc1Cl)c1cc(Cl)ccc1O [Niclosamide],-4.393,
CC(C)[N+](C)(CCC(C(N)=O)(c1ccccc1)c1ccccc1)C(C)C [ISOPROPAMIDE IODIDE],-4.073,
CCN(CC)CCCC(C)Nc1c2ccc(Cl)cc2nc2ccc(OC)cc12 (stereo not shown) [Quinacrine dihydrochloride dihydrate],-3.270,
CC[C@@]1(O)C[C@H](O)c2c(cc3c(c2O)C(=O)c2c(O)ccc(O)c2C3=O)[C@H]1C(=O)OC [RUTILANTINONE],-2.722,
COc1cc([C@@H]2c3cc4c(cc3[C@@H](O[C@@H]3O[C@@H]5CO[C@@H](c6cccs6)O[C@H]5[C@H](O)[C@H]3O)[C@H]3COC(=O)[C@H]23)OCO4)cc(OC)c1O [TENIPOSIDE],-2.832,
CO[C@H]1C=C[C@@]23c4cc5c(cc4CN(C[C@@H]2O)[C@H]3C1)OCO5 [CRINAMINE],-3.651,
COc1ccc(C[C@H](N)C(=O)N[C@H]2[C@@H](O)[C@H](n3cnc4c(N(C)C)ncnc43)O[C@@H]2CO)cc1 [Puromycin dihydrochloride],-4.723,
COC(=O)C[C@](O)(CCCC(C)(C)O)C(=O)O[C@@H]1C(OC)=C[C@]23CCCN2CCc2cc4c(cc2[C@H]13)OCO4 [HOMOHARRINGTONINE],-3.117,
Nc1ccn([C@@H]2O[C@H](CO)[C@@H](O)[C@@H]2O)c(=O)n1 [CYTARABINE],-3.681,
C[CH2][Hg][S]c1ccccc1C(=O)[O-].[Na+] [THIMEROSAL],-5.645,
O=C1C=C2C(=CCOC2O)O1 (stereo not shown) [PATULIN],-3.651,
Cc1c2ccncc2c(C)c2c1[nH]c1ccccc12 [Ellipticine],-3.485,
CC(=O)O[C@@H]1C[C@@]2(C)[C@H](c3ccoc3)C[C@H]3O[C@]32[C@]2(C)C(=O)C(O)=C3C(C)(C)C(=O)C=C[C@]3(C)[C@@H]12 [ANTHOTHECOL],-3.020,
CC(=O)[C@]1(O)Cc2c(O)c3c(c(O)c2[C@@H](O[C@H]2C[C@H](N)[C@H](O)[C@H](C)O2)C1)C(=O)c1ccccc1C3=O [IDARUBICIN],-2.719,
